Columns and labels:
[1] = Steady state CV, gold ultramicroelectrode; assay type: physicochemical; conditions: Tris pH 8, prepared aerobically then deoxygenated, gold UME
Text: To provide additional evidence for DXPS-dependent reduction of 1, we used electrochemistry to continuously monitor the redox state of 1 during the course of a DXPS reaction. For these experiments, we used a gold ultramicroelectrode, which allowed us to observe the steady-state current corresponding to the reduction of 1, under diffusion control, during the progression of the reaction. […] Using Equation 4 (Electrochemical Measurements, Materials and Methods), it was estimated that the observed pseudo steady state current at −0.50 V corresponded to a one-electron transfer reaction. We used this voltage to interrogate the reduction of 1 during reaction with enzyme and substrates. […] Reactions were initiated in the cell via addition of different combinations of DXPS and substrates which were previously deoxygenated in an anaerobic chamber (Fig 9, S26). […] Returning to the CV, when measured after the chemical reaction transpires, the reduction peak nearly vanished as expected (Fig 9, S28).
Reaction solutions were prepared containing 2 mM MgCl2, 100 mM NaCl, 50 mM Tris pH 8, 1 mM ThDP, and 1 (final 1 mM) under aerobic conditions to allow for oxidation of 1. […] Reactions were initiated and mixed via gas tight Hamilton syringe at ~300 s and measured for at least 200 s. […]

H431A DXPS = target: T1, H431A DXPS (Escherichia coli, UniProt P77488, H431A); assay: DXPS-IspC coupled assay, H431A variant; assay type: biochemical, E. coli
T1 construct: made in house
Method: To determine the role of active site network residues in the activity of oximes, inhibitory activity of 1 was assessed against EcD427A, EcH431A, and EcR99A by the DXPS-IspC coupled assay[41],[42] (Fig 4B, S3, Table S1). Ki determination was performed by varying [pyruvate] in order to assess the impact of residue substitutions on the uncompetitive mode of inhibition. […] (8.7 ± 1.2 μM, Fig S3, Table S1).
(§1) Inhibitory activity of compounds against DXPS were monitored via a continuous spectrophotometric coupled assay with DXPS and IspC as previously described.[41],[42] Briefly, Reaction mixtures containing HEPES (100 mM, pH 8.0), MgCl2 (2 mM), NaCl (5 mM), ThDP (1 mM), BSA (1 mg/mL), DXPS (125–500 nM), IspC (1.7 μM), NADPH (160 μM), DMSO (5%, v/v), and inhibitor (0–200 μM) were preincubated at 25 °C (or chamber temperature 25–30 °C) for 5 min. Enzymatic reactions were initiated via the addition of 20 μL of a 10x substrate mix for a final well volume of 200 μL. Reactions were performed in triplicate unless otherwise noted. See the following sections for details and modifications.
When varying pyruvate (0–500 μM), GAP was maintained at 50 μM (3 mM for R478A). When varying GAP (0–500 μM), pyruvate was maintained at 500 μM. The following [DXPS] were used when varying 1: WT EcDXPS, R478A, H431A, D427A (200 nM), R99A (500 nM), WT DrDXPS, WT PaDXPS (150 nM). Analogs 3 and 4 were tested using WT EcDXPS (150 nM). Reactions were incubated and initiated as described above. Immediately following initiation, NADPH depletion was monitored at 340 nm at 25 °C for 7–10 min with a 14–20 second time interval. Initial velocities of DXP formation were determined from the linear portion of the NADPH decay. Initial velocities were arithmetically corrected for background for compound 4. Initial velocities were plotted vs. substrate concentration, and the data were fit to equation 1 (mixed model), 2 (competitive), or 3 (uncompetitive) based on the calculated α value and goodness of fit in GraphPad Prism. Reported standard errors of the mean for Kis are calculated from three replicates.

WT EcDXPS = target: T2, WT EcDXPS (Escherichia coli, UniProt P77488); assay: Anaerobic apparent Ki, DXPS-IspC coupled assay; assay type: biochemical, E. coli
T2 construct: made in house
Method: as §1
Reaction components were brought into the anaerobic chamber and allowed to deoxygenate for ~2 hours. WT EcDXPS was used at 125 nM. When varying pyruvate (0–500 μM), GAP was maintained at 50 μM. When varying GAP (0–500 μM), pyruvate was maintained at 500 μM. Reactions were incubated and initiated as described above. Immediately following initiation, NADPH depletion was monitored at 340 nm at chamber temperature (25–30 °C) for 5 min with a ~17 second time interval. Initial velocities of DXP formation were determined as above, plotted vs. substrate concentration, and the data were fit to either equation 2, or 3 based on the calculated α value and goodness of fit in GraphPad Prism. Reported standard errors of the mean for Kis are calculated from three replicates.

ON=Cc1cc(O)c(O)cc1O [compound 1, 2,4,5-trihydroxybenzaldoxime]
reduction half-height potential (steady state CV) [1]: ~ −0.35 V | Ki (H431A DXPS): 1100 ± 100 nM | MOI varying pyruvate (H431A DXPS; EcH431A): uncompetitive | fold lower Ki relative to WT (H431A DXPS; H431A, vary pyruvate): ~ 4 fold | Ki (+O2)/ Ki (-O2) (WT EcDXPS; - O2): ~ 10 | MOI varying D-GAP (WT EcDXPS; anaerobic, WT EcDXPS): competitive | MOI varying pyruvate (WT EcDXPS; anaerobic, WT EcDXPS): uncompetitive

From doi:10.1101/2025.03.03.641193, “Trihydroxybenzaldoximes are redox cycling inhibitors of ThDP-dependent DXP synthase” (bioRxiv, 2025)
